Laboratory results from the supplement of paper PMC10307832.

Key:
Test in all cases: relative viability (nuclei count vs DMSO), 5 days (fraction); higher = more cells survive
[1] = system: NCI-H596
Outline: (§1)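 Medians of duplicate plates are given as relative viability. That measure is the nuclei count in treated wells divided by the count in vehicle wells. Counts were taken on 4× images of lung cancer cell lines in 1536-well plates, 5 days after pin-tool dosing the day after seeding with one drug alone or a fixed anchor-drug dose plus five library-drug doses (not always all listed) in √10 steps.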

[2] = system: NCI-H661
Outline: as §1

[3] = system: NCI-H727
Outline: as §1

[4] = system: NCI-H2342
Outline: as §1

[5] = system: ChaGo-K-1
Outline: as §1

[6] = system: CAL-12T
Outline: as §1

[7] = system: NCI-H1355
Outline: as §1

[8] = system: SW 1573
Outline: as §1

[9] = system: NCI-H460
Outline: as §1

[10] = system: PC-3 [JPC-3]
Outline: as §1

[11] = system: NCI-H23
Outline: as §1

[12] = system: NCI-H2009
Outline: as §1

[13] = system: NCI-H2126
Outline: as §1

[14] = system: ABC-1
Outline: as §1

[15] = system: COR-L23
Outline: as §1

[16] = system: 201T
Outline: as §1

[17] = system: HOP-62
Outline: as §1

[18] = system: NCI-H1666
Outline: as §1

[19] = system: NCI-H1651
Outline: as §1

[20] = system: LC-2-ad
Outline: as §1

[21] = system: NCI-H322M
Outline: as §1

[22] = system: NCI-H1944
Outline: as §1

[23] = system: NCI-H2087
Outline: as §1

Structure (SMILES): C=C1C(=O)O[C@@H](CCCCCCCC)[C@@H]1C(=O)O [C-75] + O=C(c1cc(Cc2n[nH]c(=O)c3ccccc23)ccc1F)N1CCN(C(=O)C2CC2)CC1 [Olaparib] (partner 8 µM)
- relative viability ([1]; first compound 0.08 µM): 0.73
- relative viability ([1]; first compound 0.253 µM): 0.686
- relative viability ([1]; first compound 0.8 µM): 0.626
- relative viability ([1]; first compound 2.53 µM): 0.601
- relative viability ([1]; first compound 8 µM): 0.656
- relative viability ([2]; first compound 0.08 µM): 0.725
- relative viability ([2]; first compound 0.253 µM): 0.805
- relative viability ([2]; first compound 0.8 µM): 0.693
- relative viability ([2]; first compound 2.53 µM): 0.66
- relative viability ([2]; first compound 8 µM): 0.699
- relative viability ([3]; first compound 0.08 µM): 0.69
- relative viability ([3]; first compound 0.253 µM): 0.865
- relative viability ([3]; first compound 0.8 µM): 0.671
- relative viability ([3]; first compound 2.53 µM): 0.371
- relative viability ([3]; first compound 8 µM): 0.636
- relative viability ([4]; first compound 0.08 µM): 0.503
- relative viability ([4]; first compound 0.253 µM): 0.49
- relative viability ([4]; first compound 0.8 µM): 0.374
- relative viability ([4]; first compound 2.53 µM): 0.38
- relative viability ([4]; first compound 8 µM): 0.454
- relative viability ([5]; first compound 0.08 µM): 0.401
- relative viability ([5]; first compound 0.253 µM): 0.392
- relative viability ([5]; first compound 0.8 µM): 0.411
- relative viability ([5]; first compound 2.53 µM): 0.358
- relative viability ([5]; first compound 8 µM): 0.401
- relative viability ([6]; first compound 0.08 µM): 0.774
- relative viability ([6]; first compound 0.253 µM): 0.796
- relative viability ([6]; first compound 0.8 µM): 0.788
- relative viability ([6]; first compound 2.53 µM): 0.766
- relative viability ([6]; first compound 8 µM): 0.793
- relative viability ([7]; first compound 0.08 µM): 0.709
- relative viability ([7]; first compound 0.253 µM): 0.767
- relative viability ([7]; first compound 0.8 µM): 0.76
- relative viability ([7]; first compound 2.53 µM): 0.647
- relative viability ([7]; first compound 8 µM): 0.753
- relative viability ([8]; first compound 0.08 µM): 0.485
- relative viability ([8]; first compound 0.253 µM): 0.547
- relative viability ([8]; first compound 0.8 µM): 0.505
- relative viability ([8]; first compound 2.53 µM): 0.309
- relative viability ([8]; first compound 8 µM): 0.224
- relative viability ([9]; first compound 0.08 µM): 0.413
- relative viability ([9]; first compound 0.253 µM): 0.503
- relative viability ([9]; first compound 0.8 µM): 0.366
- relative viability ([9]; first compound 2.53 µM): 0.356
- relative viability ([9]; first compound 8 µM): 0.377
- relative viability ([10]; first compound 0.08 µM): 1.13
- relative viability ([10]; first compound 0.253 µM): 1.02
- relative viability ([10]; first compound 0.8 µM): 1.11
- relative viability ([10]; first compound 2.53 µM): 1.03
- relative viability ([10]; first compound 8 µM): 1.2
- relative viability ([11]; first compound 0.08 µM): 0.364
- relative viability ([11]; first compound 0.253 µM): 0.334
- relative viability ([11]; first compound 0.8 µM): 0.239
- relative viability ([11]; first compound 2.53 µM): 0.555
- relative viability ([11]; first compound 8 µM): 0.24
- relative viability ([12]; first compound 0.08 µM): 0.67
- relative viability ([12]; first compound 0.253 µM): 0.654
- relative viability ([12]; first compound 0.8 µM): 0.623
- relative viability ([12]; first compound 2.53 µM): 0.488
- relative viability ([12]; first compound 8 µM): 0.521
- relative viability ([13]; first compound 0.08 µM): 0.881
- relative viability ([13]; first compound 0.253 µM): 0.927
- relative viability ([13]; first compound 0.8 µM): 0.858
- relative viability ([13]; first compound 2.53 µM): 0.878
- relative viability ([13]; first compound 8 µM): 0.894
- relative viability ([14]; first compound 0.08 µM): 0.862
- relative viability ([14]; first compound 0.253 µM): 0.703
- relative viability ([14]; first compound 0.8 µM): 0.811
- relative viability ([14]; first compound 2.53 µM): 0.719
- relative viability ([14]; first compound 8 µM): 0.792
- relative viability ([15]; first compound 0.08 µM): 0.353
- relative viability ([15]; first compound 0.253 µM): 0.216
- relative viability ([15]; first compound 0.8 µM): 0.284
- relative viability ([15]; first compound 2.53 µM): 0.325
- relative viability ([15]; first compound 8 µM): 0.319
- relative viability ([16]; first compound 0.08 µM): 0.812
- relative viability ([16]; first compound 0.253 µM): 0.897
- relative viability ([16]; first compound 0.8 µM): 0.84
- relative viability ([16]; first compound 2.53 µM): 0.605
- relative viability ([16]; first compound 8 µM): 0.87
- relative viability ([17]; first compound 0.08 µM): 0.532
- relative viability ([17]; first compound 0.253 µM): 0.5
- relative viability ([17]; first compound 0.8 µM): 0.321
- relative viability ([17]; first compound 2.53 µM): 0.372
- relative viability ([17]; first compound 8 µM): 0.393
- relative viability ([18]; first compound 0.08 µM): 0.681
- relative viability ([18]; first compound 0.253 µM): 0.79
- relative viability ([18]; first compound 0.8 µM): 0.678
- relative viability ([18]; first compound 8 µM): 0.653
- relative viability ([19]; first compound 0.08 µM): 0.196
- relative viability ([19]; first compound 0.253 µM): 0.206
- relative viability ([19]; first compound 0.8 µM): 0.189
- relative viability ([19]; first compound 2.53 µM): 0.173
- relative viability ([19]; first compound 8 µM): 0.167
- relative viability ([20]; first compound 0.08 µM): 0.683
- relative viability ([20]; first compound 0.253 µM): 0.751
- relative viability ([20]; first compound 0.8 µM): 0.343
- relative viability ([20]; first compound 2.53 µM): 0.596
- relative viability ([20]; first compound 8 µM): 0.668
- relative viability ([21]; first compound 0.08 µM): 0.764
- relative viability ([21]; first compound 0.253 µM): 0.965
- relative viability ([21]; first compound 0.8 µM): 0.754
- relative viability ([21]; first compound 8 µM): 0.764
- relative viability ([22]; first compound 0.08 µM): 0.381
- relative viability ([22]; first compound 0.253 µM): 0.419
- relative viability ([22]; first compound 0.8 µM): 0.353
- relative viability ([22]; first compound 2.53 µM): 0.392
- relative viability ([22]; first compound 8 µM): 0.428
- relative viability ([23]; first compound 0.08 µM): 0.643
- relative viability ([23]; first compound 0.253 µM): 0.626
- relative viability ([23]; first compound 0.8 µM): 0.584
- relative viability ([23]; first compound 2.53 µM): 0.468
- relative viability ([23]; first compound 8 µM): 0.423
